Columns and labels:
mouse IgG (IgGM) = assay: Binding kinetics to biotinylated IgG immobilized on optical biosensors (mouse IgG)
Description: (§1) Biotinylated IgG was immobilized onto optical biosensors to enable high throughput kinetic analyses in microplate format. The IgG-binding behavior to the Hex nanocarrier in comparison to soluble SPAB at neutral and acidic pH was assessed.

rabbit IgG (IgGR) = assay: Binding kinetics to biotinylated IgG immobilized on optical biosensors (rabbit IgG)
Description: as §1

Q: For “domain B of staphylococcal protein A [SPAB]”, which “stronger binding at neutral pH compared to pH 5.0” value (mouse IgG (IgGM)) is on record?
A: 17 fold

Q: What about the “affinities towards mouse IgG (in words)” value (mouse IgG (IgGM); neutral pH and pH 5.0) of the same substance?
A: nanomolar

Q: What about the Kd (mouse IgG (IgGM); pH 5.0) of the same substance?
A: 470 ± 19 nM

Q: What about the Kd (mouse IgG (IgGM); pH 7.4) of the same substance?
A: 28.3 ± 2.8 nM

Q: What about the Kd (rabbit IgG (IgGR); pH 5.0) of the same substance?
A: 255 ± 17 nM

Q: What about the Kd (rabbit IgG (IgGR); pH 7.4) of the same substance?
A: 53 ± 2 nM
